From patent publication US20210269451A1, “PYRIDINYL HETEROCYCLYL COMPOUNDS FOR THE TREATMENT OF AUTOIMMUNE DISEASE” (Hoffmann-La Roche Inc., priority 2018, published 2021)

Tests used:
hTLR9 = molecular target: T1, hTLR9 (Homo sapiens, UniProt Q9NR96); design: host or cells: HEK; conditions: disclosed in US20150105370; read-out: HEK/hTLR9 IC50; cited from earlier work
T1 sequence (Q9NR96 26-1032): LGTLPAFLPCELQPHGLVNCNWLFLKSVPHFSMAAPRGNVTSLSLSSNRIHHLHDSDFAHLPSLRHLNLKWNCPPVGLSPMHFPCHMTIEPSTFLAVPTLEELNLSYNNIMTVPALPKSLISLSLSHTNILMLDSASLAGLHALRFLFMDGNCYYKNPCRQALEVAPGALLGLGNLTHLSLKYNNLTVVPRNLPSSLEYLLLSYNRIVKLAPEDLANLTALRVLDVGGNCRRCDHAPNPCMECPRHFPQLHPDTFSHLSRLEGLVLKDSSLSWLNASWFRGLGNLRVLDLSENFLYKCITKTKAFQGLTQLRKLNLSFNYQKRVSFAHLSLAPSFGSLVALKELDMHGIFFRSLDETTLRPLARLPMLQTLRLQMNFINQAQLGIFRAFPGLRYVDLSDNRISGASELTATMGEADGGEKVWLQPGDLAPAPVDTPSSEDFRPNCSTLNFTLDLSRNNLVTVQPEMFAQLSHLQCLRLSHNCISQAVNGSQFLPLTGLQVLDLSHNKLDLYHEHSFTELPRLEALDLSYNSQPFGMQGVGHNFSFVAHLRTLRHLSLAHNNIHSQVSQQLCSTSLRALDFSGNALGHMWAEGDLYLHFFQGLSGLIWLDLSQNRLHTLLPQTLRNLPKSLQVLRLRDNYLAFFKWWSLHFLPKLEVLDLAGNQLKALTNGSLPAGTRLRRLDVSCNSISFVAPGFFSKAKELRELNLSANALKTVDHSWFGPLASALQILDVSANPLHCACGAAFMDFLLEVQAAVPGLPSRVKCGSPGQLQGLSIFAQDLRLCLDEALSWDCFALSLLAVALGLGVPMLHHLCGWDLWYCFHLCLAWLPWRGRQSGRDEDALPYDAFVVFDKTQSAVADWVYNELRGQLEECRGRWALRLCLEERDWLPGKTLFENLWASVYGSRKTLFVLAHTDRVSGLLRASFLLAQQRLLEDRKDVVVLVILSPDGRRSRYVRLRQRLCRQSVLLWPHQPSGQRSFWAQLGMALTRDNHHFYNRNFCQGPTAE

hERG channel = molecular target: T2, hERG channel (Homo sapiens, UniProt Q12809); test: hERG channel inhibition assay (patch-clamp, CHOhERG cells); format: cell-based; conditions: safety ratio;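 as to hERG IC20/TLR7 IC50: ratio above 30 indicates an adequate safety window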;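 as to hERG IC20/TLR8 IC50: ratio above 30 indicates an adequate safety window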
T2 construct: expressed in transfected cells; host or cells: CHO (Chinese hamster ovary), CHOhERG
T2 sequence (Q12809 whole entry): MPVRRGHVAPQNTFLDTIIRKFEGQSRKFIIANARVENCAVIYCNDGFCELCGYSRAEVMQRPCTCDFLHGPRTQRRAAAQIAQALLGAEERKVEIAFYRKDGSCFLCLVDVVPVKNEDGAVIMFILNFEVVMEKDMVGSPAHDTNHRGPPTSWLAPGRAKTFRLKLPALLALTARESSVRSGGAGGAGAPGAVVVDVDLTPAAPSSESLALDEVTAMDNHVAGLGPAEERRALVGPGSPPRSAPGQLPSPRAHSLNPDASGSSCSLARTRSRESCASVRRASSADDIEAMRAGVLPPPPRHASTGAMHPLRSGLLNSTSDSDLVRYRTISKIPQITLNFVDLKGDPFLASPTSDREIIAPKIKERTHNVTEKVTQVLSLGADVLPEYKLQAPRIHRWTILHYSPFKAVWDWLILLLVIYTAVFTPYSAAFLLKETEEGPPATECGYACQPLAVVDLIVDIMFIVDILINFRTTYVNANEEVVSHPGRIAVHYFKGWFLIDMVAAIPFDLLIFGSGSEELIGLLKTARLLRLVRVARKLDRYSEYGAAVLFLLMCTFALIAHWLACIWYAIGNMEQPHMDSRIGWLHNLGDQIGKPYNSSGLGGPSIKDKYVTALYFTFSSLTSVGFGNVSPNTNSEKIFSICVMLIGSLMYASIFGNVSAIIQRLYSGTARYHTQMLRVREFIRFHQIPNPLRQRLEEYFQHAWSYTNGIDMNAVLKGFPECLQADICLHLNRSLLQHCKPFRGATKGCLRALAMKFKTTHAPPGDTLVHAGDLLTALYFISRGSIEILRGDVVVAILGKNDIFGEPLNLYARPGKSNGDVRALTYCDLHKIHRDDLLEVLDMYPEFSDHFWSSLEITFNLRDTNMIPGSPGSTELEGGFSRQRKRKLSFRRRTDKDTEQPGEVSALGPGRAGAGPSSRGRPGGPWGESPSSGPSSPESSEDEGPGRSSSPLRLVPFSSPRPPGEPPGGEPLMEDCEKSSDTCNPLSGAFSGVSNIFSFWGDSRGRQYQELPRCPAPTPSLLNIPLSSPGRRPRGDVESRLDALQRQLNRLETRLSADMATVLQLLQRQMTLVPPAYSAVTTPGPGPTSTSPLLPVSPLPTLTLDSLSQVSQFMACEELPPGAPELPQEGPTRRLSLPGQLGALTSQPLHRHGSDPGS
Description: hERG channel inhibition assay:
The hERG K^+ channels were cloned in humans and stably expressed in a CHO (Chinese hamster ovary) cell line. CHOhERG cells were used for patch-clamp (voltage-clamp, whole-cell) experiments. Cells were stimulated by a voltage pattern to activate hERG channels and conduct IKhERG currents (rapid delayed outward rectifier potassium current of the hERG channel). After the cells were stabilized for a few minutes, the amplitude and kinetics of IKhERG were recorded at a stimulation frequency of 0.1 Hz (6 bpm). Thereafter, the test compound was added to the preparation at increasing concentrations. For each concentration, an attempt was made to reach a steady-state effect, usually, this was achieved within 3-10 min at which time the next highest concentration was applied. The amplitude and kinetics of IKhERG are recorded in each concentration of the drug which were compared to the control values (taken as 100%). (references: Redfern W S, Carlsson L, Davis A S, Lynch W G, MacKenzie I, Palethorpe S, Siegl P K, Strang I, Sullivan A T, Wallis R, Camm A J, Hammond T G. 2003; Relationships between preclinical cardiac electrophysiology, clinical QT interval prolongation and torsade de pointes for a broad range of drugs: evidence for a provisional safety margin in drug development. Cardiovasc. Res. 58:32-45, Sanguinetti M C, Tristani-Firouzi M. 2006; hERG potassium channels and cardiac arrhythmia. Nature 440:463-469, Webster R, Leishman D, Walker D. 2002; Towards a drug concentration effect relationship for QT prolongation and torsades de pointes. Curr. Opin. Drug Discov. Devel. 5:116-26).

[1] = Human microsome stability assay; format: in vitro ADME; conditions: 1 μM test compound, 0.5 mg/mL liver microsomal protein, 37° C.
Description: Human microsome stability assay
The human microsomal stability assay is used for early assessment of metabolic stability of a test compound in human liver microsomes.
Human liver microsomes (Cat.NO.: 452117, Corning, USA;Cat.NO.:H2610, Xenotech, USA) were preincubated with test compound for 10 minutes at 37° C. in 100 mM potassium phosphate buffer, pH 7.4. The reactions were initiated by adding NADPH regenerating system. The final incubation mixtures contained 1 μM test compound, 0.5 mg/mL liver microsomal protein, 1 mM MgCl2, 1 mM NADP, 1 unit/mL isocitric dehydrogenase and 6 mM isocitric acid in 100 mM potassium phosphate buffer, pH 7.4. After incubation times of 0, 3, 6, 9, 15 and 30 minutes at 37° C., 300 μL of cold acetonitrile (including internal standard) was added to 100 μL incubation mixture to terminate the reaction. Following precipitation and centrifugation, the amount of compound remaining in the samples were determined by LC-MS/MS. Controls of no NADPH regenerating system at zero and 30 minutes were also prepared and analyzed.

CYP2D6 = molecular target: T3, CYP2D6 (Homo sapiens, UniProt P10635); test: CYP inhibition assay in human liver microsome; format: in vitro ADME; conditions: human liver microsomes, probe dextromethorphan, dextromethorphan substrate, percentage inhibition <0: not or weak inhibitor, read-out: CYP 2D6 inhibition %@10 μM
T3 construct: tissue BD-Gentest 452117; host or cells: human liver microsomes
T3 sequence (P10635 whole entry): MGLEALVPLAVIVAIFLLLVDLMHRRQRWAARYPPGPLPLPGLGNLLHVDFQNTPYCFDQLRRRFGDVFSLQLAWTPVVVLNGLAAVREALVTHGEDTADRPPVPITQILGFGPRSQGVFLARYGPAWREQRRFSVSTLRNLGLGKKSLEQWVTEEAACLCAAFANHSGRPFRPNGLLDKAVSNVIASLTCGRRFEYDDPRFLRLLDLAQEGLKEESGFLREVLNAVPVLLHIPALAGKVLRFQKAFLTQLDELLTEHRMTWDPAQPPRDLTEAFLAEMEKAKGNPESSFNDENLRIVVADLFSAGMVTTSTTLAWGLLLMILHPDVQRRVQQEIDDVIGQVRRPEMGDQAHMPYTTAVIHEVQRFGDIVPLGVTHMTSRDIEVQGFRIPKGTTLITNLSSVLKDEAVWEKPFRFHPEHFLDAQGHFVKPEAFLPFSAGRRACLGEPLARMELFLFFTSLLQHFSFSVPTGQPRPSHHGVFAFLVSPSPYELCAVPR
Description: The compounds would be desirable to have minimal DDI liabilities. Therefore, the effects of compounds of formula (I) or (Ia) on CYP2D6 are determined.
This is a high throughput screening assay used for assessment of reversible inhibition of CYP2D6 activity of test compounds in human liver microsome (HLM) in early discovery stage.
10 mM DMSO stock solutions of test compounds were diluted in DMSO to generate 2 mM intermediate stock solution. 250 nL of intermediate stock solution were transferred in duplicate into 3 separate 384 well microtitre plates (assay-ready plates). A mixture of HLM and each substrate was made up. 45 μL of HLM substrate mix was then transferred to each well of an assay ready plate and mixed. The negative (solvent) and positive control (standard inhibitor for CYP 2D6) were included in each assay ready plate. The assay ready plate was warmed to 37° C. in an incubator over 10 minutes. 5 μL pre-warmed NADPH regenerating system was added to each incubation well to start the reaction. Final incubation volume was 50 μL. The assay plate then was placed back in the 37° C. incubator. After 10 minutes incubation, incubates were quenched by addition of 50 μL 100% acetonitrile containing internal standards (20 ng/mL D3-Dextrorphan). The supernatants were collected for RapidFire/MS/MS analysis.
RapidFire online solid phase extraction/sample injection system (Agilent) coupled with API4000 triple quadrupole mass spectrometer (AB Sciex) were used for sample analysis. The mobile phase composed of acetonitrile and water supplemented with 0.1% formic acid. A C4 solid phase extraction cartridge is used for sample separation. MS detection is achieved in positive ion MRM mode.
Data analysis Peak areas for substrate, metabolite and internal standard are determined using the RapidFire integrator software (version 3.6.12009.12296). Peak area ratios (PAR) of metabolite and internal standard (stable-labelled metabolite) are then calculated. The measurement window for each experiment is then defined:
PAR (0% activity), average PAR for all incubations containing concentrated inhibitor; Par (100% activity), average PAR for all incubations containing no inhibitor (DMSO controls);
% Activity (test inhibitor)=
=[PAR(test inhibitor)-PAR(0% activity)]/[PAR(100% activity)-PAR(0% activity)];
% Inhibition (test inhibitor)=100-% Activity (test inhibitor).

Row | Clearance of Human microsome [1] [mL/min/kg] | SMILES | IC50 (hTLR9) [µM] | hERG IC20/TLR7 IC50 (hERG channel) | hERG IC20/TLR9 IC50 (hERG channel) | other results
1 |  | C[C@@H]1CN(c2ccc(C#N)c3ncccc23)C[C@H](CN2CCN(c3ccccc3)CC2)O1 [ER-887258, reference compound] | > 2 | 8.1 | 0.3 | 
2 |  | C[C@@H]1CN(c2ccc(C#N)c3ncccc23)C[C@H](CN2CCN(c3ccccn3)CC2)O1 [ER-888285, reference compound] | > 2 | 8.4 | 0.5 | 
3 |  | C[C@@H]1CN(c2ccc(C#N)c3ncccc23)C[C@H](CN2CCN(c3ccncc3)CC2)O1 [ER-888286, reference compound] | > 2 | 0.3 | 0.2 | 
4 |  | C[C@@H]1CN(c2ccc(C#N)c3ncccc23)C[C@H](CN2CC(NS(=O)(=O)c3ccc(F)cc3)C2)O1 [ER-894155] | > 10 |  |  | 
5 |  | Cc1nn(C)cc1S(=O)(=O)NC1CCN(C[C@H]2CN(c3ccc(C#N)c4ncccc34)C[C@@H](C)O2)CC1 [ER-894160] | > 10 |  |  | 
6 |  | C[C@@H]1CN(c2ccc(C#N)c3ncccc23)C[C@H](CN2CC[C@@H](NC(=O)c3ccccc3)C2)O1 [ER-894544] | > 6.2 |  |  | 
7 | 7.72 | Cc1cc(N2CC[C@H](NC[C@H]3CN(c4ccc(C#N)c5ncccc45)C[C@@H](C)O3)[C@@H](O)C2)cc(CO)n1 [Example 26] |  |  |  | 
8 | 7.67 | Cc1cc(N2CC[C@@H](O)[C@H](NC[C@H]3CN(c4ccc(C#N)c5ncccc45)C[C@@H](C)O3)C2)cc(CO)n1 [Example 27] |  |  |  | 
9 | 7.61 | Cc1cc(N2C[C@@H](O)[C@H](NC[C@H]3CN(c4ccc(C#N)c5ncccc45)C[C@@H](C)O3)C2)cc(CO)n1 [Example 31] |  |  |  | 
10 |  | Cc1cc(N2CCN(C[C@H]3CN(c4ccc(C#N)n5nccc45)C[C@@H](C)O3)C(Cc3ccccc3)C2)cc(C)n1 (some centres unmarked) [Example 39] |  |  |  | inhibition at 10 min, 10 μM (CYP2D6): 7.5%
11 | 10.84 | COc1ccc(N2CCN(C[C@H]3CN(c4ccc(C#N)c5ncccc45)C[C@@H](C)O3)CC2)cc1 [Example R1, 5-[(2S,6R)-2-[[4-(4-methoxyphenyl)piperazin-1-yl]methyl]-6-methyl-morpholin-4-yl]quinoline-8-carbonitrile, reference compound] |  | 9.3 | 0.1 | hERG IC20/TLR8 IC50 (hERG channel): 6.2
12 |  | C[C@@H]1CN(c2ccc(C#N)c3ncccc23)C[C@H](CN2CCN(c3ccc(Cl)cc3)CC2)O1 [Example R2, 5-[(2S,6R)-2-[[4-(4-chlorophenyl)piperazin-1-yl]methyl]-6-methyl-morpholin-4-yl]quinoline-8-carbonitrile, reference compound] |  | 1.3 | 0.0 | hERG IC20/TLR8 IC50 (hERG channel): 0.8
